From US8008283B2, “Methods and compositions for the treatment of neuropsychiatric disorders” (Neurotherapeutics Pharma, Inc., priority 2005, dated 2011)

Key:
rats [1] = assay: contextual fear conditioning in rats (freezing); format: in vivo, rat; settings: I.V. in DMSO, furosemide 100 mg/kg, bumetanide 50 mg/kg; compared with vehicle alone; FIG. 5
Procedure: Contextual fear conditioning involves pairing an aversive event, in this case moderate foot shock, with a distinctive environment. The strength of the fear memory is assessed using freezing, a species-typical defensive reaction in rats, marked by complete immobility, except for breathing. […] However, if they are allowed to explore the distinctive environment sometime before the immediate shock, they show intense anxiety and fear when placed back into the same environment. We can take advantage of this fact and, by procedurally dividing contextual fear conditioning into two phases, we can separately study effects of treatments on memory for the context (specifically a hippocampus based process) from learning the association between context and shock or experiencing the aversiveness of the shock (which depend upon emotional response circuitry including amygdala). […] The experiment employed 24 rats. […] Each rat was again placed into the same environment for 8 min during which time freezing was measured, as an index of Pavlovian conditioned fear. […] Measurement of freezing was accomplished through an overhead video camera connected to the microcomputer and was automatically scored using a specialty piece of software, FreezeFrame (OER Inc., Reston, Va.). Total freezing time was analyzed in a one-way analysis of variance (ANOVA) test, with drug dose as the […] factor.

rats [2] = assay: fear potentiated startle (FPS) test in rats; format: in vivo, rat
Procedure: Twenty-four rats received a 30 min period of habituation to the FPS apparatus. Twenty-four hours later, baseline startle amplitudes were collected. The rats were then divided into three matched groups based on baseline startle amplitudes. […] Groups 1 and 2 therefore consisted of 8 rats each, with Group 3 consisting of […]. Following baseline startle amplitude collection, 20 light/shock pairings were delivered on two sessions over two consecutive days (i.e., 10 light/shock pairings per day). […] Immediately following injections, startle amplitudes were assessed during startle alone trials and startle plus fear (light followed by startle) trials. Fear potentiated startle (light+startle amplitudes minus startle alone amplitudes) was compared between the treatment groups.
Animals were trained and tested in four identical stabilimeter devices (Med-Associates). Briefly, each rat was placed in a small Plexiglas cylinder. The floor of each stabilimeter consisted of four 6-mm-diameter stainless steel bars spaced 18 mm apart through which shock can be delivered. Cylinder movements result in displacement of an accelerometer where the resultant voltage is proportional to the velocity of the cage displacement. Startle amplitude is defined as the maximum accelerometer voltage that occurs during the first 0.25 sec after the startle stimulus is delivered. […] Each stabilimeter was enclosed in a ventilated, light-, and sound-attenuating box. All sound level measurements were made with a Precision Sound Level Meter. The noise of a ventilating fan attached to a sidewall of each wooden box produced an overall background noise level of 64 dB. The startle stimulus was a 50 ms burst of white noise (5 ms rise-decay time) generated by a white noise generator. The visual conditioned stimulus employed was illumination of a light bulb adjacent to the white noise source. The unconditioned stimulus was a 0.6 mA foot shock with duration of 0.5 sec, generated by four constant-current shockers located outside the chamber. The presentation and sequencing of all stimuli were under the control of the microcomputer.
FPS procedures consisted of 5 days of testing; during days 1 and 2 baseline startle responses were collected, days 3 and 4 light/shock pairings were delivered, day 5 testing for fear potentiated startle was conducted.
Matching: On the first two days all rats were placed in the Plexiglas cylinders and 3 min later presented with 30 startle stimuli at a 30 sec interstimulus interval.
Training: On the following 2 days, rats were placed in the Plexiglas cylinders. […] The shock was delivered during the last 0.5 sec of the 3.7 sec CSs at an average intertrial interval of 4 min (range, 3-5 min).
These initial startle stimuli were used to again habituate the rats to the acoustic startle stimuli. Thirty seconds after the last of these stimuli, each animal received 60 startle stimuli with half of the stimuli presented alone (startle alone trials) and the other half presented 3.2 sec after the onset of the 3.7 sec CS (CS-startle trials). All startle stimuli are presented at a mean 30 sec interstimulus interval, randomly varying between 20 and 40 sec.
Measures: The treatment groups were compared on the difference in startle amplitude between CS-startle and startle-alone trials (fear potentiation).
The therapeutic efficacy of several bumetanide analogs in alleviating anxiety was examined using the fear potentiated startle (FPS) test in rats as described above.

rats [3] = settings: Granados-Soto et al. Pain 2005; cited from earlier work
human skin = settings: Willis et al.; cited from earlier work

Compound: CCCCNc1cc(C(=O)O)cc(S(N)(=O)=O)c1Oc1ccccc1 [bumetanide]
- freezing (rats [1]): significantly less freezing
- difference score one week after treatment (rats [2]; compared with vehicle alone, FIG. 10): higher difference score
- statistical difference from vehicle in difference score one week after treatment (rats [2]; error bars large for vehicle-treated animals): does not imply any statistically significant difference
- difference score (startle alone - fear potentiated startle) on the test day (rats [2]; i.v. in DMSO, furosemide 100 mg/kg, bumetanide 70 mg/kg, compared with vehicle alone, FIG. 8): statistically significantly lower difference score
- formalin-induced nociception (rats [3]): reduced
- sensory nerve activation, itch and flare responses induced by histamine (human skin): inhibit sensory nerve activation to reduce the itch and flare responses

Compound: CCCc1c2oc(C(=O)O)cc(=O)c2cc2c(=O)cc(C(=O)O)n(CC)c12 [nedocromil sodium]
- sensory nerve activation, itch and flare responses induced by histamine (human skin): inhibit sensory nerve activation to reduce the itch and flare responses

Compound: NS(=O)(=O)c1cc(C(=O)O)cc(N2CCCC2)c1Oc1ccccc1 [piretanide]
- formalin-induced nociception (rats [3]): reduced
